Experiments:
[1] = tested on: retina of aged Fisher rats; assay: Retinal morphology (H & E, rows and thickness of ONL and INL) in aged rats; type: in vivo, rat; conditions: female Fisher rats ~19-21 months, 500 nmoles/kg/day by gavage for 3 months
Procedure: (§1) Female aged (19–21 months) Fisher rats (n = 7) were given P021 per os by gavage (10 ml/kg body weight) once a day for 88 days. […] To be able to deliver the same constant dose to each animal, we chose gavage. Furthermore, the administration of P021 by gavage is more economical than by drinking water. As controls, the second group of aged (19–21 months) female rats (n = 7) and a group of young adult female rats (2–3 months, n = 7) were treated identically, but with normal saline (vehicle) only (Figure 1A). Administration of vehicle and test compound was done at 7–9 AM daily and blindly to the investigators who collected, processed, and analyzed the tissue.
(§2) The animals were anesthetized by using an overdose of avertin and then were transcardially perfused by using 0.1 M phosphate-buffered saline (PBS). Eyeballs were dissected out from the carcasses, immersion-fixed for 24 h in 4% paraformaldehyde at 4°C, and then transferred to 70% alcohol for storage; in the case of mice, the eyeballs were prefixed by injecting 4% paraformaldehyde, followed by removal from the carcasses and immersion fixation as above. After the cornea and lens of the left eyes were removed, the remaining eye cup was embedded in paraffin, with the orientation parallel to the optic nerve in longitudinal position. In all cases, 5-μm serial sections were cut by using a rotary microtome and were mounted on Superfrost Plus slides. Processing and analysis of the retinal tissue were conducted blind.
(§3) Every 25th retinal section was deparaffinized and subjected to hematoxylin and eosin (H & E) staining to evaluate the morphology. The H & E staining images were captured with a light microscope using 2×, 40×, and 100× objective lenses. Because there is no significant difference between the 1/5th to the 1/3rd of the retina from the optic nerve head and the most peripheral part, we chose the 1/5th position of the retina from the optic nerve to the most peripheral part of the retina as the “central,” and the most peripheral part of the retina as “peripheral.” Rows of the outer nuclear layer (ONL) and the inner nuclear layer (INL) of the retina in each group (every 25th section, 3–5 sections per rat or mouse, n = 5–7 rats per group; n = 5–6 mice per group) were manually counted in three columns per image by using a 40× or, where necessary, a higher magnification objective. The thicknesses of the ONL and INL of the central and peripheral retina in each group (every 25th section from the optic nerve head, 2–3 sections per rat or mouse, n = 3–7 rats per group; n = 5–6 mice per group) were measured and quantified by using the ImageJ/NIH image analysis system. Processing and analysis of the retinal tissue and the data were conducted blind to the genotypes and the treatment of the animals.

[2] = tested on: RPE of aged Fisher rats; assay: RPE and BM pathology (H & E, auto-fluorescence deposits) in aged rats; type: in vivo, rat; conditions: female Fisher rats ~19-21 months, 500 nmoles/kg/day by gavage for 3 months
Procedure: as §1
(§4) The animals were anesthetized by using an overdose of avertin and then were transcardially perfused by using 0.1 M phosphate-buffered saline (PBS). […]
Every 25th retinal section was deparaffinized and subjected to hematoxylin and eosin (H & E) staining to evaluate the morphology. […] Because there is no significant difference between the 1/5th to the 1/3rd of the retina from the optic nerve head and the most peripheral part, we chose the 1/5th position of the retina from the optic nerve to the most peripheral part of the retina as the “central,” and the most peripheral part of the retina as “peripheral.” Rows of the outer nuclear layer (ONL) and the inner nuclear layer (INL) of the retina in each group (every 25th section, 3–5 sections per rat or mouse, n = 5–7 rats per group; n = 5–6 mice per group) were manually counted in three columns per image by using a 40× or, where necessary, a higher magnification objective. The thicknesses of the ONL and INL of the central and peripheral retina in each group (every 25th section from the optic nerve head, 2–3 sections per rat or mouse, n = 3–7 rats per group; n = 5–6 mice per group) were measured and quantified by using the ImageJ/NIH image analysis system. […]

[3] = tested on: retina of 3xTg-AD mice; assay: Retinal morphology (H & E, rows and thickness of ONL and INL) in aged 3xTg-AD mice; type: in vivo, mouse; conditions: female 3xTg-AD mice, 60 nmoles P021/g feed from 3 to 21 months of age
Description: (§5) At approximately 3 months of age, the female wild type and 3xTg-AD mice were divided into five groups (n = 6–7 mice per group; Figure 3A): (1) wild type mice, age 3 months, without treatment (WT-3 m); (2) 3xTg-AD mice, age 3 months, without treatment (3xTg-3 m); (3) wild type mice, age 3 months, treated with vehicle feed without P021 until the age of 21 months (WT-21 m/Veh); (4) 3xTg-AD-mice, age 3 months, treated with vehicle feed without P021 until the age of 21 months (3xTg-21 m/Veh); and (5) 3xTg-AD-mice, age 3 months, treated with 60 nmol P021/g feed till the age of 21 months (3xTg-21 m/P021). The first two groups, WT-3 m and 3xTg-AD-3 m, were the starting points and were employed as controls to study age-associated AMD-like changes in WT-21 m and 3xTg-AD-21 m, respectively. We included WT-21 m/Veh as another reference group to enable a comparison of AMD-like changes in 3xTg-21 m/Veh with age-matched WT animals. […] P021 was formulated in the feed by Research Diets (New Brunswick, NJ, USA). Food consumption and body weight were recorded every 2 weeks and every month, respectively. The average mouse food consumption was ~2.7 g feed/day. The analysis of the animals was carried out blind to the treatment.
as §2, §3

[4] = tested on: RPE and BM of 3xTg-AD mice; assay: RPE and BM pathology (H & E, auto-fluorescence deposits) in aged 3xTg-AD mice; type: in vivo, mouse; conditions: female 3xTg-AD mice, 60 nmoles P021/g feed from 3 to 21 months of age
Description: (§6) At approximately 3 months of age, the female wild type and 3xTg-AD mice were divided into five groups (n = 6–7 mice per group; Figure 3A): (1) wild type mice, age 3 months, without treatment (WT-3 m); (2) 3xTg-AD mice, age 3 months, without treatment (3xTg-3 m); (3) wild type mice, age 3 months, treated with vehicle feed without P021 until the age of 21 months (WT-21 m/Veh); (4) 3xTg-AD-mice, age 3 months, treated with vehicle feed without P021 until the age of 21 months (3xTg-21 m/Veh); and (5) 3xTg-AD-mice, age 3 months, treated with 60 nmol P021/g feed till the age of 21 months (3xTg-21 m/P021). The first two groups, WT-3 m and 3xTg-AD-3 m, were the starting points and were employed as controls to study age-associated AMD-like changes in WT-21 m and 3xTg-AD-21 m, respectively. […] Food consumption and body weight were recorded every 2 weeks and every month, respectively. […]
Every 25th retinal section was deparaffinized and subjected to hematoxylin and eosin (H & E) staining to evaluate the morphology. […] The thicknesses of the ONL and INL of the central and peripheral retina in each group (every 25th section from the optic nerve head, 2–3 sections per rat or mouse, n = 3–7 rats per group; n = 5–6 mice per group) were measured and quantified by using the ImageJ/NIH image analysis system. […]

[5] = tested on: Iba-1; assay: Microgliosis, Iba-1 immunofluorescence in retina of 3xTg-AD mice; type: in vivo, mouse; conditions: female 3xTg-AD mice, 60 nmoles P021/g feed from 3 to 21 months of age
Description: as §6
(§7) Paraffin sections were deparaffinized, rehydrated, and subjected to antigen retrieval by boiling for 20 min in 10 mM sodium citrate solution (pH 6.0). […] The area to be analyzed was selected, converted to grayscale, and thresholded using Yen’s arithmetic, and the area percentage of positive staining was measured for each section by using the NIH ImageJ software package. The staining area was quantified from two to three sections of each eye and averaged (n = 5–7 animals per group).

[6] = tested on: Iba-1; assay: Microgliosis, Iba-1 immunofluorescence in retina of aged rats; type: in vivo, rat; conditions: female Fisher rats ~19-21 months, 500 nmoles/kg/day by gavage for 3 months
Procedure: as §1, §4, §7

[7] = tested on: GFAP; assay: Astrogliosis, GFAP immunofluorescence in retina of 3xTg-AD mice; type: in vivo, mouse; conditions: female 3xTg-AD mice, 60 nmoles P021/g feed from 3 to 21 months of age
Description: as §5, §4, §7

[8] = tested on: GFAP; assay: Astrogliosis, GFAP immunofluorescence in retina of aged rats; type: in vivo, rat; conditions: female Fisher rats ~19-21 months, 500 nmoles/kg/day by gavage for 3 months; n = 6-7 rats; vs 22-24 m/Veh
Procedure: as §1, §4, §7

[9] = tested on: total tau, phosphorylated tau, Aβ/APP; assay: Tau and Aβ pathologies, immunofluorescence in retina of aged rats; type: in vivo, rat; conditions: aged Fisher rats, 500 nmoles/kg/day by gavage for 3 months; qualitative, not quantified, 2-3 animals/group
Procedure: as §1, §4, §7

[10] = tested on: total tau, phosphorylated tau, Aβ/APP; assay: Tau and Aβ pathologies, immunofluorescence in retina of aged 3xTg-AD mice; type: in vivo, mouse; conditions: 60 nmoles P021/g feed from 3 to 21 months of age, qualitative, not quantified, 2-3 animals/group
Description: as §6, §7

[11] = tested on: VEGF; assay: VEGF immunofluorescence in retina and optic nerve of aged 3xTg-AD mice; type: in vivo, mouse; conditions: 60 nmoles P021/g feed from 3 to 21 months of age, qualitative, 2-3 animals/group
Description: as §6, §7

[12] = method not given, block ends with ref Kazim et al., 2014, cited from earlier work
Procedure: P021 is quite stable in artificial gastric juice (~90% for 30 min) and in artificial intestinal juice (>95% for 120 min).

[13] = commercial service (APREDICA, Watertown, MA, USA); ref Kazim et al., 2014; cited from earlier work
[14] = tested on: aged rats and mice; conditions: chronic oral treatment in aged rats and mice, earlier study; ref Kazim et al., 2014; cited from earlier work
Description: At as early as 12 months of age, OXYS rats and Wistar rats are known to show AMD-like pathology, such as BM thickening and lipofuscin accumulation (Neroev et al., [2008]; Markovets et al., [2011]). […] Here, to assess the AMD-like retinal pathology induced by aging and to study the effect of P021 on the p ...

Substance: Ac-DGGL^AG-NH2 [P021]
- outer retinal folds and rosette-like structures in the central retina [1]: No abnormal structure like this was observed
- rows and thickness of INL in the central retina [1]: no detectable effect
- rows and thickness of ONL, central and peripheral retina ([1]; vs 22-24 m/Veh): prevented these pathological changes more effectively in the central retina
- rows of INL in the peripheral retina ([1]; vs 22-24 m/Veh): showed a clear trend to rescue the number of rows
- arrangement of apical microvilli (AM) in RPE ([2]; H & E): showed improvement in the arrangement of AM
- vacuolation and atrophy of RPE ([2]; H & E): no apparent abnormalities were observed
- lipofuscin granules and deposition number between RPE and Cho ([2]; auto-fluorescence λex = 543, n = 7 rats, vs 22-24 m/Veh): markedly decreased
- extension of ONL nuclei across the OPL or into the INL, central retina ([3]; H & E): this pathology was prevented
- prevention of changes in rows and thickness of INL in the peripheral retina ([3]; vs 3xTg-21 m/Veh, H & E): did not reach significance
- rows and thickness of INL in the central retina ([3]; vs 3xTg-21 m/Veh, H & E): prevented these changes
- rows and thickness of ONL in the central retina ([3]; vs 3xTg-21 m/Veh, H & E): these changes in the central retina were prevented
- rows and thickness of ONL in the peripheral retina ([3]; vs 3xTg-21 m/Veh, H & E): showed a trend to rescue these changes
- rescue of INL thickness in the central retina ([3]; vs 3xTg-21 m/Veh, obvious trend): did not reach statistical significance
- thickening of the BM ([4]; H & E): no BM thickening
- number of deposits between the RPE and Cho ([4]; auto-fluorescence λex = 543, n = 5 mice, vs 3xTg-21 m/Veh): significantly reduced
- distribution of Iba-1-positive staining in the central retina [5]: only observed in the GCL
- area percentage of Iba-1 immunostaining in the peripheral retina ([5]; NFL to ONL, n = 3-6 mice, vs 3xTg-21 m/Veh): decreased in 3xTg-21 m/P021 mice to the levels in WT-3 m/Veh and 3xTg-3 m/Veh mice
- localization of Iba-1-positive microglial cells in the retina ([6]; especially central retina): no staining was found from the ONL to the OS
- relative Iba-1 immunostaining from the NFL to the OS, central and peripheral retinas ([6]; n = 6-7 rats, vs 22-24 m/Veh): dramatically reduced
- distribution of GFAP-positive staining in the retina [7]: limited to the NFL and GCL
- area percentage of GFAP in the peripheral retina, changes between groups ([7]; n = 3-6 mice, similar trend, large standard error): did not reach statistical significance
- area percentage of GFAP from the NFL to the ONL in the central retina ([7]; n = 5-6 mice, vs 3xTg-21 m/Veh): reduced by P021 treatment to the levels in WT-3 m/Veh and 3xTg-3 m/Veh mice
- GFAP staining in central and peripheral retinas [8]: reduced very much
- tau and Aβ pathologies in the retina (R134d, PHF-1, AT8, 4G8, Aβ immunofluorescence) [9]: prevented the trend in the increase in tau and Aβ pathologies
- tau and Aβ pathologies in the retina (R134d, PHF-1, AT8, 4G8, Aβ immunofluorescence) [10]: prevented the trend in the increase in tau and Aβ pathologies
- VEGF staining in the optic nerve [11]: the size of the staining patch was decreased
- localization of VEGF-positive spots in the retina [11]: limited mainly to the GCL to the IPL
- stability in artificial gastric juice ([12]; 30 min): ~ 90%
- stability in artificial intestinal juice ([12]; 120 min): > 95%
- BBB crossing [13]: a sufficient amount of P021 crossed the BBB
- general physical state / side effects [14]: did not observe any worsening in general physical state

Source: PMC6877482, “Inhibition of AMD-Like Pathology With a Neurotrophic Compound in Aged Rats and 3xTg-AD Mice” (Frontiers in Aging Neuroscience, 2019)
